Results reported in PubChem BioAssay AID248 (DTP/NCI, 2004).
Toxic doses and inconclusive results are not listed. Cut-off read from the data, not from the text of the source: active = T/C of 150% or more; inactive = T/C below 125%.

System: L1210 leukemia ip in BDF1 mice, survival T/C
Assay: NCI In Vivo Anticancer Drug Screen. Data for tumor model L1210 Leukemia (intraperitoneal) in B6D2F1 (BDF1) mice
Conditions: endpoint: mean survival time, higher = longer survival
Outline: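 Value reflects the ratio of survival in compound-treated mice to survival in vehicle-treated controls, with both groups carrying the same transplanted tumor.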

[1] = dose: 50.0 mg/kg/injection, schedule: Q01DX001 (ip), vehicle: carboxymethylcellulose (CMC)
[2] = dose: 100.0 mg/kg/injection, schedule: Q01DX001 (ip), vehicle: carboxymethylcellulose (CMC)
[3] = dose: 200.0 mg/kg/injection, schedule: Q01DX001 (ip), vehicle: carboxymethylcellulose (CMC)
[4] = dose: 400.0 mg/kg/injection, schedule: Q01DX001 (ip), vehicle: carboxymethylcellulose (CMC)
[5] = dose: 100.0 mg/kg/injection, schedule: Q01DX009 (ip), vehicle: saline with Tween-80
[6] = dose: 200.0 mg/kg/injection, schedule: Q01DX009 (ip), vehicle: saline with Tween-80
[7] = dose: 400.0 mg/kg/injection, schedule: Q01DX009 (ip), vehicle: saline with Tween-80
[8] = dose: 100.0 mg/kg/injection, schedule: Q01DX009 (ip), vehicle: Klucel (hydroxypropylcellulose) (HPC)
[9] = dose: 200.0 mg/kg/injection, schedule: Q01DX009 (ip), vehicle: Klucel (hydroxypropylcellulose) (HPC)
[10] = dose: 100.0 mg/kg/injection, schedule: Q01DX001 (ip), vehicle: saline
[11] = dose: 200.0 mg/kg/injection, schedule: Q01DX001 (ip), vehicle: saline

Measured: T/C

O=C(COc1ccc(Cl)cc1Cl)Nc1ccccc1[N+](=O)[O-]
inactive: dose: 100.0 mg/kg/injection, schedule: Q04DX002 (ip), vehicle: saline 92 % of control | dose: 200.0 mg/kg/injection, schedule: Q04DX002 (ip), vehicle: saline 92 % of control | dose: 400.0 mg/kg/injection, schedule: Q04DX002 (ip), vehicle: saline 92 % of control

O=CN/N=C\c1cc2ccccc2c2ccccc12
inactive: [1] 96 % of control | [2] 93 % of control | [3] 93 % of control | [4] 87 % of control

CCCNC(=O)Oc1ccc(C(=O)OCC)cc1
inactive: [5] 93 % of control | [6] 98 % of control | [7] 94 % of control

Cc1cc(Oc2nc(Cl)nc(C(Cl)(Cl)Cl)c2Cl)cc(C)c1N(C)C (tested in a mixture with another compound)
inactive: dose: 100.0 mg/kg/injection, schedule: Q04DX003 (ip), vehicle: Klucel (hydroxypropylcellulose) (HPC) 91 % of control | dose: 200.0 mg/kg/injection, schedule: Q04DX003 (ip), vehicle: Klucel (hydroxypropylcellulose) (HPC) 105 % of control

O=[N+]([O-])c1ccc(OCCO)c([N+](=O)[O-])c1
inactive: dose: 50.0 mg/kg/injection, schedule: Q04DX003 (ip), vehicle: saline with Tween-80 104 % of control | dose: 100.0 mg/kg/injection, schedule: Q04DX003 (ip), vehicle: saline with Tween-80 104 % of control | dose: 200.0 mg/kg/injection, schedule: Q04DX003 (ip), vehicle: saline with Tween-80 103 % of control

O=c1[nH]cc(Cl)cc1Cl
inactive: [8] 94 % of control | [9] 94 % of control | dose: 400.0 mg/kg/injection, schedule: Q01DX009 (ip), vehicle: Klucel (hydroxypropylcellulose) (HPC) 108 % of control

Nc1ncnc2nc(CO)[nH]c12
inactive: dose: 100.0 mg/kg/injection, schedule: Q04DX002 (ip), vehicle: Klucel (hydroxypropylcellulose) (HPC) 92 % of control | dose: 200.0 mg/kg/injection, schedule: Q04DX002 (ip), vehicle: Klucel (hydroxypropylcellulose) (HPC) 100 % of control | dose: 400.0 mg/kg/injection, schedule: Q04DX002 (ip), vehicle: Klucel (hydroxypropylcellulose) (HPC) 95 % of control

CCC1C(=O)OCc2c1cc1n(c2=O)CCC1 (configuration not stated)
inactive: dose: 25.0 mg/kg/injection, schedule: Q01DX001 (ip), vehicle: saline 113 % of control | dose: 50.0 mg/kg/injection, schedule: Q01DX001 (ip), vehicle: saline 104 % of control | [10] 104 % of control | [11] 115 % of control

CC(C)CCc1c(N)nc(N)nc1N
inactive: dose: 25.0 mg/kg/injection, schedule: Q04DX003 (ip), vehicle: Klucel (hydroxypropylcellulose) (HPC) 93 % of control | dose: 50.0 mg/kg/injection, schedule: Q04DX003 (ip), vehicle: Klucel (hydroxypropylcellulose) (HPC) 96 % of control

Nc1ccc(C2=NCCO2)cc1
inactive: dose: 100.0 mg/kg/injection, schedule: Q01DX001 (ip), vehicle: Klucel (hydroxypropylcellulose) (HPC) 92 % of control | dose: 200.0 mg/kg/injection, schedule: Q01DX001 (ip), vehicle: Klucel (hydroxypropylcellulose) (HPC) 103 % of control | dose: 400.0 mg/kg/injection, schedule: Q01DX001 (ip), vehicle: Klucel (hydroxypropylcellulose) (HPC) 96 % of control

CCc1ccc(NC2=C(OC)C(=O)C(Nc3ccc(CC)cc3)=C(OC)C2=O)cc1
inactive: [1] 98 % of control | [2] 93 % of control | [3] 98 % of control | [4] 90 % of control

COc1cc2c(cc1OC)C1CCN3C(=O)CCC3N1CC2 (configuration not stated)
inactive: dose: 50.0 mg/kg/injection, schedule: Q01DX009 (ip), vehicle: Klucel (hydroxypropylcellulose) (HPC) 101 % of control | [8] 101 % of control | [5] 95 % of control | [9] 104 % of control | [6] 98 % of control | [7] 98 % of control

O=[N+]([O-])c1ccc(\C=C/C=C/C=C/C2(CCl)OCCO2)cc1
inactive: dose: 100.0 mg/kg/injection, schedule: Q01DX001 (ip), vehicle: saline with Tween-80 91 % of control | dose: 200.0 mg/kg/injection, schedule: Q01DX001 (ip), vehicle: saline with Tween-80 87 % of control

CNNP1(=O)OCC(C)([N+](=O)[O-])CO1 (configuration not stated)
inactive: [10] 101 % of control | [11] 101 % of control

CCOC(=O)c1c(C)c2c(n1C)CCC(CCC(C)=O)C2=O (configuration not stated)
inactive: [2] 104 % of control | [3] 97 % of control | [4] 93 % of control
